According to patent US20220056123A1, “USE OF IL-1BETA BINDING ANTIBODIES” (NOVARTIS AG, priority 2018, published 2022):
Read-outs that look alike come from different tables or passages of the source.

Legend:
[1] = tested on: MDA-MB231; assay: TNBC MDA-MB231 xenograft in humanized BLT mice; type: in vivo, humanized mouse; conditions: single agent arm, compared to isotype control
Description: • I. Tumor models: The role of IL-1β in tumor immunity and efficacy of IL-1β blocking antibodies were tested in the following preclinical models: • Xenograft tumors in humanized mouse models: NSCLC (H358), TNBC (MDA-MB231) and CRC (SW480) • Syngeneic tumor models: TNBC (4T1) and lung (LL-2) cancer • II. […] Combination treatments include chemotherapeutic agent, docetaxel (6.25 mg/Kg QW IV), PD-1 pathway inhibitors (anti-human PD-1, pembrolizumab 10 mg/Kg Q5D IP or anti-mouse PD-1, clone 1D2 10 mg/Kg QW IP) and anti-mouse VEGF blocking antibody (clone 4G3, 5 mg/Kg Q5D) were used in combination with anti-IL-1β antibody. Appropriate isotype controls were used. In all experiments, dosing was initiated after tumor implantation. • III. Experimental readouts: activity of therapeutic agents in preclinical models were assessed by the following: • Tumor volume was determined by measurement with calipers throughout the course of the study. Tumor weights in milligrams were determined at end of study • Immunohistochemistry analysis was performed on FFPE NSCLC (H358) xenograft tissue • Changes in immune populations in peripheral blood in CRC (SW480) xenograft humanized model and tumors in syngeneic models (4T1 and LL-2) were assessed by flow cytometry using markers for T cell, myeloid populations

[2] = target: mouse IL-1β (Mus musculus, UniProt P10749); assay: Cross-reactivity with mouse IL-1β; type: binding
[3] = tested on: MDA-MB-231Luc2-TdTomato cells; assay: Spontaneous human breast cancer metastasis to human bone implants; type: in vivo, NOD SCID mice
Description: FIG. 4. Pharmacological blockade of IL-1B inhibits spontaneous metastasis to human bone in vivo. Female NOD-SCID mice bearing two 0.5 cm^3 pieces of human femoral bone received intra-mammary injections of MDA-MB-231Luc2-TdTomato cells. […] All animals were culled 35 days following tumour cell injection. Effects on bone metastases (a) were assessed in vivo and immediately post-mortem by luciferase imaging and confirmed ex vivo on histological sections. Data are shown as numbers of photons per second emitted 2 minutes following sub-cutaneous injection of D-luciferin. Effects on numbers of tumour cells detected in the circulation are shown in (b). *=P<0.01. **=P<0.001. ***=P<0.0001.
To model human breast cancer metastasis to human bone implants two human bone discs were implanted subcutaneously into 10-week old female NOD SCID mice (n=10/group) under isofluorane anaesthetic. Mice received an injection of 0.003 mg vetergesic and Septrin was added to the drinking water for 1 week following bone implantation. Mice were left for 4 weeks before injecting 1×10^5 MDA-MB-231 Luc2-TdTomato, MCF7 Luc2 or T47D Luc2 cells in 20% Martigel/79% PBS/1% toluene blue into the two hind mammary fat pads. Primary tumor growth and development of metastases was monitored weekly using an IVIS […] system (Caliper Life Sciences) following sub-cutaneous injection of 30 mg/ml D-luciferin (Invitrogen). On termination of experiments mammary tumors, circulating tumor cells, serum and bone metastases were resected. RNA was processed for downstream analysis by real time PCR, and cell lysates were taken for protein analysis and whole tissue for histology as previously described (Nutter et al., 2014; Ottewell et al., 2014a). […] Tumor cells, serum, and bone were subsequently resected for downstream analysis. Bone metastases were investigated following injection of 5×10^5 MDA-MB-231 GFP (control), MDA-MB-231-IV, MDA-MB-231-IL-1B-positive or MDA-MB-231-IL-1R1-positive cells into the lateral tail vein of 6 to 8-week old female BALB/c nude mice (n=12/group). Tumor growth in bones and lungs was monitored weekly by GFP imaging in live animals. Mice were culled 28 days after tumor cell injection at which timepoint hind limbs, lungs and serum were resected and processed for microcomputed tomography imaging (pCT), histology and ELISA analysis of bone turnover markers and circulating cytokines as described (Holen et al., 2016).
Whole blood was centrifuged at 10,000×g for 5 minutes and the serum removed for ELISA assays. The cell pellet was re-suspended in 5 ml of FSM lysis solution (Sigma-Aldrich, Pool, UK) to lyse red blood cells. Remaining cells were re-pelleted, washed 3× in PBS and re-suspended in a solution of PBS/10% FCS. Samples from 10 mice per group were pooled prior to isolation of TdTomato positive tumor cells using a MoFlow High performance cell sorter (Beckman Coulter, Cambridge UK) with the […] laser line from a Coherent I-90C tenable argon ion (Coherent, Santa Clara, Calif.). TdTomato fluorescence was detected by a 555LP dichroic long pass and a 580/30 nm band pass filter. Acquisition and analysis of cells was performed using Summit 4.3 software. After sorting, cells were immediately placed in RNA protect cell reagent (Ambion, Paisley, Renfrew, UK) and stored at −80° C. before RNA extraction. For counting numbers of circulating tumor cells, TdTomato fluorescence was detected using a 561 nm laser and an YL1-A filter (585/16 emission filter). Acquisition and analysis of cells was performed using Attune N×T software.

[4] = CANTOS immunogenicity, bridging ECLIA for anti-drug antibodies; type: in vivo, human
Description: During the CANTOS trial, blood samples for immunogenicity assessments were collected at baseline Month 12, 24 and end of study visit. Immunogenicity was analyzed using a bridging immunogenicity electrochemiluminescence immunoassay (ECLIA). Samples were pre-treated with acetic acid and neutralized in buffer containing labeled drug (biotinylated ACZ885 and sulfo-TAG (Ruthenium) labeled ACZ885). Anti-canakinumab antibodies (anti-drug antibodies) were captured by a combination of biotinylated and sulfo-TAG labeled forms of ACZ885. Complex formation was subsequently detected by electrochemiluminescence by capturing complexes on Mesoscale Discovery Streptavidin (MSD) plates.

[5] = tested on: patients with atherosclerosis who had had a myocardial infarction; conditions: compared with placebo, median follow-up 3.7 years, cited from earlier work

Sequence of mouse IL-1β (P10749 118-269): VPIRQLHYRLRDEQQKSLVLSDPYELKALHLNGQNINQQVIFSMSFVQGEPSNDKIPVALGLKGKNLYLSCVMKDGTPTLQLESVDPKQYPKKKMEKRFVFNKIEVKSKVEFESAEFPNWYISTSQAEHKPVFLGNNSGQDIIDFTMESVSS

canakinumab: high-affinity, fully human monoclonal antibody of the IgG1/k to interleukin-1β
animals with slower tumor growth [1]: 100 % of animals | cross-reactivity with mouse IL-1β [2]: does not cross-react to murine IL-1β | cross-reactivity with mouse IL-1β ([2]; listed as Canakinumab): does not cross-react with mouse IL-1β | mice with metastasis detected in human bone implants ([3]; IL-1Ra 1 mg/kg daily, canakinumab sc every 14 days, from 7 days after tumor cell injection, control 7 out of 10): 1 out of 10 | size of bone metastases ([3]; luciferase imaging, vs control group): smaller than those detected in the control group | tumor cells counted in whole blood ([3]; placebo 108 tumor cells/ml): 3 tumor cells/ml | patients with treatment-emergent anti-canakinumab antibodies ([4]; canakinumab 150 mg group): 0.4% | patients with treatment-emergent anti-canakinumab antibodies ([4]; canakinumab 300 mg group): 0.3% | association of anti-drug antibodies with AEs or hsCRP response ([4]; in vivo): not associated with immunogenicity related AEs or altered hsCRP response | reductions in concentrations of hsCRP ([5]; dose-dependent (50, 150, 300 mg sc every 3 months)): 26-41% | reductions in concentrations of interleukin 6 ([5]; dose-dependent): 25-43%
